Columns and labels:
rat CRTC1 = test: Knock-down of CRTC1 by lentiviral shRNA, 6-OHDA rat model; type: in vivo; settings: lentiviral rat CRTC1 hCMV-TurboGFP shRNA
rat PAK4 = test: Knock-down of PAK4 by lentiviral shRNA; type: in vivo; settings: lentiviral rat PAK4 hCMV-TurboGFP shRNA
From the text: Lentiviral rat PAK4 hCMV-TurboGFP shRNAs were purchased from Dharmacon and Open Biosystems. […] In this case, lentiviral shRNA control particles (#S-005000-01) were used as a control.
Protein extracts were obtained by conventional protein extraction methods, and immunoblots were visualized using HRP-conjugated secondary antibodies to IgG and chemiluminescent substrate (SuperSignal Ultra; Pierce). For quantitative analysis of protein levels, each band density of the immunoblots was quantitatively analyzed using the National Institutes of Health ImageJ software (National institutes of Health).
As a method for checking the action of PAK4 in Parkinson's disease, the present inventors injected a lent viral green fluorescent protein (GFP) small hairpin control (shCtrl) or lentiviral-GFP-shPAK4 construct into the right striatum of the rat brain to analyze the role of PAK4 in Parkinson's disease.

TH-positive DA neurons = test: PF-3758309 stereotaxic injection into the SN, analysis of TH-positive neurons and fibers; type: in vivo, rat; settings: PF-3758309 injected into the SN (substantia nigra)
Description: Mice were anesthetized with chloral hydrate (360 mg/kg, intraperitoneal [i.p.] injection) and then placed in a stereotaxic instrument (Kopf Instruments, Tujunga, CA, USA). The injection site coordinates in the right SN were 5.3 mm AP, 2.0 mm ML and 7.6 mm DV, from the bregma. Then, PF-3758309 (0.5 μg) was injected using a Hamilton syringe needle (33-gauge needle). In this case, the flow rate of the injection solution (2 ul) was allowed to be at 0.25 ul/min. After the injection, the syringe needle was maintained as it is for 5 more minutes to suppress the reflux of the solution. […]
Human brain tissue slices embedded with paraffin were deparaffinized with xylene. […] Samples were reacted with Alexa 488- or Alexa 594-conjugated secondary antibodies for fluorescence microscopic analysis. […] For Nissl-staining, SN tissue was fixed on a gelatin-coated slide and dried at room temperature for 1 hour, stained with 0.5% cresyl violet, dehydrated, covered with a cuff slip and analyzed using a bright field microscopy (Nikon).
The unbiased stereological analysis of the total number of TH+ neurons was performed using an optical fractionator method and Stereo Investigator software (MBF Bioscience, Williston, VT). The method is an assay which is not influenced by reference volume (SNpc) or size of counted elements (neurons). The total number of neurons was calculated by Optical Fractionator Equation. […]

Compound	knock-down of the expression of CRTC1 (rat CRTC1)	knock-down of the expression of PAK4 (rat PAK4)	further results
SH-111776-02: lentiviral rat CRTC1 shRNA, TCGCTAAATTTCCGCGGAT	effectively knocked down	–	–
SH-082018-02: lentiviral rat PAK4 shRNA, TGATCGAAGCCTGTGTGTA, Dharmacon and Open Biosystems	–	effectively knocked down	–
Cc1nc(Nc2[nH]nc3c2CN(C(=O)N[C@H](CN(C)C)c2ccccc2)C3(C)C)c2sccc2n1 [PF-3758309]	–	–	TH-positive DA neurons (TH-positive DA neurons): decreased
SH-082018-01: lentiviral rat PAK4 shRNA, TTACGCAAGTCCATCTTCT, Dharmacon and Open Biosystems	–	effectively knocked down	–
SH-111776-01: lentiviral rat CRTC1 shRNA, CACGATATACTCTGTCCAC	effectively knocked down	–	–
